The results in this text go back to patent publication US11414442B2, “ARF6 inhibitors and related methods” (Navigen, Inc., priority 2017, dated 2022).

By IC50 is commonly meant the concentration at which inhibition is half-maximal. One may read the solubility as the dissolved amount per volume that the medium holds.

The target of one series is ARF6 (Homo sapiens, UniProt P62330). Put plainly: ARF6 inhibition, biochemical fluorometric nucleotide exchange assay. The settings on record: read-out: ARF6 IC50. The text has this: These ARF6 inhibitors were discovered using a high-throughput biochemical, fluorometric nucleotide exchange assay to screen 100,000 compounds from a commercially available compound library. Medicinal chemistry optimization efforts have also been conducted. In some embodiments, the clinical potential of the discovered small molecule ARF6 inhibitors can be limited by poor solubility. Accordingly, the synthesis and development of water soluble prodrugs of ARF6 inhibitors can be advantageous. […]

A short description of series [1]: Solubility in water and PBS pH 7.4 (Tables 1 and 2). It is filed as physicochemical.
The mark [2] stands for this setting: Table 2, water, read-out: Solubility Water.
Setting [3] is: Table 1, water, read-out: Solubility Water.
Setting [4] is: aqueous buffer, Table 1, PBS pH 7.4, read-out: Solubility PBS pH 7.4.

Read-outs that look alike come from different tables or passages of the source.

Chain of ARF6 (P62330 whole entry, species assumed): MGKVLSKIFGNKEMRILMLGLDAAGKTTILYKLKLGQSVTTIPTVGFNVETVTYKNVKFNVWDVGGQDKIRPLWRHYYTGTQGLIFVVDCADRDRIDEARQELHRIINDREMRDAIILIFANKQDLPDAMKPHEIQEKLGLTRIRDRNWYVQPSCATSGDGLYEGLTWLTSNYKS

For the molecule `Cc1ccc(-c2cc(=O)[nH]c3c(-c4ccc(Cl)cc4)c(Cc4ccccc4)nn23)c(OC(=O)[C@@H](N)CCCCN)c1` [NAV-AAF], at ARF6 (Table 1), the IC50 is over 50 µM.

Consider `O=c1c(-c2ccc(F)cc2OP(=O)([O-])[O-])c[nH]c2c(-c3ccc(Cl)cc3)c(Cc3ccccc3)nn12.[Na+].[Na+]` [NAV-AAP′], for which the IC50 on ARF6 (Table 2) is 9.2 µM. The solubility in series [1] (setting [2]) is over 50 mg/mL.

For the molecule `Cc1ccc(-c2cc(=O)[nH]c3c(-c4ccc(Cl)cc4)c(Cc4ccccc4)nn23)c(OP(=O)([O-])[O-])c1.[Na+].[Na+]` [NAV-AAR], the solubility in series [1] (setting [3]) is over 50 mg/mL.

On to `N#Cc1ccc(-c2cc(=O)[nH]c3c(-c4ccc(Cl)cc4)c(Cc4ccccc4)nn23)c(OC(=O)[C@@H](N)CCCCN)c1` [NAV-AAD], for which the IC50 on ARF6 (Table 1) came to 2.9 µM. Further, the solubility in series [1] (setting [3]) is 300 µM; in series [1] (setting [4]), under 1 µM.

Turning to `O=c1cc(-c2ccc(F)cc2O)n2nc(Cc3ccccc3)c(-c3ccc(Cl)cc3)c2[nH]1` [NAV-AD], the IC50 at ARF6 (Table 1) came to 2.4 µM. Besides, the solubility in series [1] (setting [3]) and in series [1] (setting [4]) was under 1 µM in each case.

On to `NCCCC[C@H](N)C(=O)Oc1cc(Cl)ccc1-c1cc(=O)[nH]c2c(-c3ccc(Cl)cc3)c(C(F)(F)F)nn12` [NAV-Z], for which, on ARF6 (Table 1), the IC50 was determined as 4.25 µM. Also, the solubility in series [1] (setting [3]) amounted to 450 µM; in series [1] (setting [4]), 22 µM.

Turning to `O=c1cc(-c2ccc(Cl)cc2O)n2nc(CN3CCOCC3)c(-c3ccc(Cl)cc3)c2[nH]1` [NAV-H], the IC50 on ARF6 (Table 1) came out at 30 µM. For the same molecule, the solubility in series [1] (setting [3]) worked out at 7 µM; in series [1] (setting [4]) it was 13 µM.

In the case of `O=c1cc(-c2ccc(C(F)(F)F)cc2O)n2nc(C(F)(F)F)c(-c3ccc(Cl)c(Cl)c3)c2[nH]1` [NAV-T], the 50% inhibitory concentration (IC50) on ARF6 (Table 1) worked out at 2.3 µM. The solubility came out at 13 µM in series [1] (setting [3]) and 11 µM in series [1] (setting [4]).

On to `O=c1cc(-c2ccc(F)cc2O)n2nc(C3CC3)c(-c3ccc(Cl)c(Cl)c3)c2[nH]1` [NAV-AF], for which the half-maximal inhibitory concentration (IC50) at ARF6 (Table 1) came to 1.9 µM. Moreover, the solubility in series [1] (setting [3]) is 1.1 µM; in series [1] (setting [4]), under 1 µM.

Regarding `O=c1cc(-c2ccc(F)cc2O)n2nc(C(F)(F)F)c(-c3ccc(Cl)c(Cl)c3)c2[nH]1` [NAV-AW], the IC50 at ARF6 (Table 1) is 1.6 µM. Besides, the solubility is under 1 µM in series [1] (setting [3]) and 30 µM in series [1] (setting [4]).

Turning to `O=c1cc(-c2ccccc2O)n2nc(CN3CCOCC3)c(-c3ccc(Cl)cc3)c2[nH]1` [NAV-G], the IC50 on ARF6 (Table 1) is over 50 µM. For the same molecule, the results for the solubility in series [1] (setting [3]) and in series [1] (setting [4]) were 56 µM and 82 µM, respectively.

`N#Cc1ccc(-c2cc(=O)[nH]c3c(-c4ccc(Cl)cc4)c(C(F)(F)F)nn23)c(O)c1` [NAV-Q]: the IC50 on ARF6 (Table 1) amounted to 5.1 µM. Further, the solubility is under 1 µM in series [1] (setting [3]) and 11 µM in series [1] (setting [4]).

`O=c1cc(-c2ccc([N+](=O)[O-])cc2O)n2nc(C3CC3)c(-c3ccc(Cl)c(Cl)c3)c2[nH]1` [NAV-L]: the IC50 on ARF6 (Table 1) came to 6.2 µM. Besides, the solubility in series [1] (setting [3]) is under 1 µM; in series [1] (setting [4]), 20 µM.

Regarding `O=c1cc(-c2ccc(F)cc2O)n2nc(C(F)(F)F)c(-c3ccc(Cl)cc3)c2[nH]1` [NAV-AY], the concentration for half-maximal inhibition (IC50) at ARF6 (Table 1) came out at 6.2 µM. Besides, the solubility in series [1] (setting [3]) worked out at 4.5 µM; in series [1] (setting [4]), 70 µM.

As for `NCCCC[C@H](N)C(=O)Oc1cc(F)ccc1-c1cc(=O)[nH]c2c(-c3ccc(Cl)cc3)c(Cc3ccccc3)nn12` [NAV-AAE], the 50% inhibitory concentration (IC50) at ARF6 (Table 1) was 3.3 µM.

Regarding `O=c1cc(-c2ccc(Cl)cc2O)n2nc(Cc3ccccc3)c(-c3ccc(Cl)cc3)c2[nH]1` [NAV-D], the IC50 at ARF6 (Table 1) was 11 µM. Moreover, the solubility in series [1] (setting [3]) and in series [1] (setting [4]) was under 1 µM in each case.

Regarding `O=c1cc(-c2ccccc2O)n2nc(C(F)(F)F)c(-c3ccc(Cl)c(Cl)c3)c2[nH]1` [NAV-O], the IC50 at ARF6 (Table 1) was found to be 2.8 µM. For the same molecule, the solubility in series [1] (setting [3]) was under 1 µM; in series [1] (setting [4]), 38 µM.

Take `Cc1ccc(-c2cc(=O)[nH]c3c(-c4ccc(Cl)cc4)c(Cc4ccccc4)nn23)c(OP(=O)(O)O)c1` [NAV-AAQ]: the 50% inhibitory concentration (IC50) at ARF6 (Table 1) amounted to 4.6 µM. Further, the solubility in series [1] (setting [3]) is over 50 mg/mL.

`O=c1cc(-c2ccccc2O)n2nc(C3CC3)c(-c3ccc(Cl)c(Cl)c3)c2[nH]1` [NAV-I]: the IC50 at ARF6 (Table 1) was 21 µM. For the same molecule, the solubility in series [1] (setting [3]) came out at 29 µM; in series [1] (setting [4]), 1.8 µM.

In the case of `O=c1cc(-c2ccc(Cl)cc2O)n2nc(C3CC3)c(-c3ccc(Cl)c(Cl)c3)c2[nH]1` [NAV-J], the IC50 on ARF6 (Table 1) came to 12 µM. Further, the solubility in series [1] (setting [3]) and in series [1] (setting [4]) was under 1 µM throughout.

In the case of `N#Cc1ccc(-c2cc(=O)[nH]c3c(-c4ccc(Cl)c(Cl)c4)c(C4CC4)nn23)c(OC(=O)[C@@H](N)CCCCN)c1` [NAV-AB], the IC50 on ARF6 (Table 1) stood at 2.4 µM. Besides, the solubility is 500 µM in series [1] (setting [3]) and under 1 µM in series [1] (setting [4]).

For `O=c1cc(-c2ccccc2O)n2nc(Cc3ccccc3)c(-c3ccc(Cl)cc3)c2[nH]1` [NAV-C], the concentration for half-maximal inhibition (IC50) on ARF6 (Table 1) worked out at 7.2 µM. The solubility came to 9.2 µM in series [1] (setting [3]) and 1.4 µM in series [1] (setting [4]).

With `O=c1cc(-c2ccccc2O)n2nc(C(F)(F)F)c(-c3ccc(Cl)cc3)c2[nH]1` [NAV-M], at ARF6 (Table 1), the IC50 turned out to be 10 µM. Moreover, the solubility stood at 4 µM in series [1] (setting [3]) and 43 µM in series [1] (setting [4]).

For `O=c1cc(-c2ccc(F)cc2OP(=O)(O)O)n2nc(Cc3ccccc3)c(-c3ccc(Cl)cc3)c2[nH]1` [NAV-AAP], the IC50 on ARF6 (Table 1) was determined as 9.2 µM.

On to `N#Cc1ccc(-c2cc(=O)[nH]c3c(-c4ccc(Cl)c(Cl)c4)c(C(F)(F)F)nn23)c(O)c1` [NAV-P], for which the IC50 at ARF6 (Table 1) was 1.4 µM. Further, the solubility in series [1] (setting [3]) was 5.75 µM; in series [1] (setting [4]) it was 19.6 µM.

With `NCCCC[C@H](N)C(=O)Oc1ccccc1-c1cc(=O)[nH]c2c(-c3ccc(Cl)c(Cl)c3)c(C(F)(F)F)nn12` [NAV-AG], on ARF6 (Table 1), the IC50 worked out at 26 µM. Besides, the solubility in series [1] (setting [3]) is over 500 µM; in series [1] (setting [4]) it was 435 µM.

For `Cc1ccc(-c2c[nH]c3c(-c4ccc(Cl)cc4)c(Cc4ccccc4)nn3c2=O)c(O)c1` [NAV-AAC′], the IC50 at ARF6 (Table 2) was determined as 3.3 µM. The solubility in series [1] (setting [2]) is under 1 mg/mL.

Take `N#Cc1ccc(-c2cc(=O)[nH]c3c(-c4ccc(Cl)c(Cl)c4)c(C(F)(F)F)nn23)c(OC(=O)[C@@H](N)CCCCN)c1` [NAV-AA]: the IC50 on ARF6 (Table 1) came out at 1.9 µM. Further, the solubility was over 500 µM in series [1] (setting [3]) and 19 µM in series [1] (setting [4]).

With `O=c1cc(-c2ccc(Cl)cc2O)n2nc(C(F)(F)F)c(-c3ccc(Cl)cc3)c2[nH]1` [NAV-K], on ARF6 (Table 1), the IC50 is 4.2 µM. Further, the solubility in series [1] (setting [3]) is under 1 µM; in series [1] (setting [4]), 43 µM.

Turning to `N#Cc1ccc(-c2cc(=O)[nH]c3c(-c4ccc(Cl)cc4)c(Cc4ccccc4)nn23)c(O)c1` [NAV-R], the IC50 on ARF6 (Table 1) came to 1.9 µM. Also, the solubility was under 1 µM in series [1] (setting [3]) and 1.7 µM in series [1] (setting [4]).

With `O=c1cc(-c2ccc(Cl)cc2O)n2nc(C(F)(F)F)c(C3CCCCC3)c2[nH]1` [NAV-F], the half-inhibitory concentration (IC50) on ARF6 (Table 1) amounted to 4.9 µM. In addition, the solubility is under 1 µM in series [1] (setting [3]) and 21 µM in series [1] (setting [4]).

As for `O=c1cc(-c2ccc(C(F)(F)F)cc2O)n2nc(C3CC3)c(-c3ccc(Cl)c(Cl)c3)c2[nH]1` [NAV-V], the IC50 on ARF6 (Table 1) was 3.2 µM. Moreover, the solubility in series [1] (setting [3]) amounted to 30 µM; in series [1] (setting [4]), 6 µM.

Regarding `O=c1cc(-c2ccc(C(F)(F)F)cc2O)n2nc(Cc3ccccc3)c(-c3ccc(Cl)cc3)c2[nH]1` [NAV-U], the concentration for half-maximal inhibition (IC50) on ARF6 (Table 1) came out at 6.7 µM. For the same molecule, the figures for the solubility in series [1] (setting [3]) and in series [1] (setting [4]) were 20 µM and 14 µM, respectively.
